“And” between values parts separate entries of the source, which are not always exact repeats. Identical values can stand only once. “Also recorded” adds a separate entry of the source. Like-named read-outs stand apart in the source and are kept apart here. One block for each molecule: values may come before it.
Experiments:
MX-1 xenografts [1] = conditions: ref Shen et al, 2013, cited from earlier work
SW620 cells = experiment: [14C]rucaparib uptake and retention in SW620 cells; assay type: in vitro ADME, human; conditions: for effect of transport inhibitor on rucaparib uptake: ouabain 30 or 100 μM, cytochalasin B 0.1 or 1 μM, dipyridamole 10 or 100 μM, BCH 1 or 2 mM
[2] = pre-clinical studies; ref Calabrese et al, 2004; cited from earlier work
[3] = Plasma pharmacokinetics and tissue distribution in Capan-1 tumour-bearing mice; assay type: in vivo
PARP [4] = target: T1, PARP (Homo sapiens, UniProt P09874); experiment: PARP activity in permeabilised or intact Capan-1 cells with carboxy metabolite; assay type: cell-based
[5] = target: T2, Poly(ADP-ribose) polymerase-1 (Mus musculus, UniProt P11103); assay type: in vivo, mice; conditions: 24 h after single dose 150 mg kg−1 p.o. or 50 mg kg−1 i.p.
[6] = test system: Poly(ADP-ribose) polymerase-1; assay type: in vivo, mice
[7] = [14C]rucaparib uptake and retention in SW620 cells; assay type: in vitro ADME, human; conditions: human, SW620 cells
[8] = target: T2, Poly(ADP-ribose) polymerase-1; experiment: in vivo; assay type: in vivo, mice
[9] = test system: Poly(ADP-ribose) polymerase-1; experiment: in vivo; assay type: in vivo, mice; conditions: for PARP activity in tumours, % of control: 7 days
Capan-1 xenografts [10] = conditions: ref Drew et al, 2011; cited from earlier work
MX-1 xenografts [11] = experiment: Efficacy study in mice bearing MX-1 xenografts; assay type: in vivo; conditions: MX-1 tumour-bearing mice
Capan-1 xenografts [12] = experiment: Efficacy study in mice bearing Capan-1 xenografts; assay type: in vivo
PARP [13] = target: T1, PARP; conditions: patients, after five daily doses; ref Plummer et al, 2008; cited from earlier work
[14] = target: Poly(ADP-ribose) polymerase-1 (Homo sapiens, UniProt P09874); experiment: PARP activity in cancer cell lines after a 30-min pulse of rucaparib; assay type: cell-based
[15] = SW620 cells, 400 nM [14C]rucaparib
[16] = 10 mg kg−1 i.p. daily × five weekly × six
[17] = Capan-1 and MX-1 cells, 30-min pulse with 400 nM

Sequence of Poly(ADP-ribose) polymerase-1 (Homo sapiens, UniProt P09874) (P09874 whole entry): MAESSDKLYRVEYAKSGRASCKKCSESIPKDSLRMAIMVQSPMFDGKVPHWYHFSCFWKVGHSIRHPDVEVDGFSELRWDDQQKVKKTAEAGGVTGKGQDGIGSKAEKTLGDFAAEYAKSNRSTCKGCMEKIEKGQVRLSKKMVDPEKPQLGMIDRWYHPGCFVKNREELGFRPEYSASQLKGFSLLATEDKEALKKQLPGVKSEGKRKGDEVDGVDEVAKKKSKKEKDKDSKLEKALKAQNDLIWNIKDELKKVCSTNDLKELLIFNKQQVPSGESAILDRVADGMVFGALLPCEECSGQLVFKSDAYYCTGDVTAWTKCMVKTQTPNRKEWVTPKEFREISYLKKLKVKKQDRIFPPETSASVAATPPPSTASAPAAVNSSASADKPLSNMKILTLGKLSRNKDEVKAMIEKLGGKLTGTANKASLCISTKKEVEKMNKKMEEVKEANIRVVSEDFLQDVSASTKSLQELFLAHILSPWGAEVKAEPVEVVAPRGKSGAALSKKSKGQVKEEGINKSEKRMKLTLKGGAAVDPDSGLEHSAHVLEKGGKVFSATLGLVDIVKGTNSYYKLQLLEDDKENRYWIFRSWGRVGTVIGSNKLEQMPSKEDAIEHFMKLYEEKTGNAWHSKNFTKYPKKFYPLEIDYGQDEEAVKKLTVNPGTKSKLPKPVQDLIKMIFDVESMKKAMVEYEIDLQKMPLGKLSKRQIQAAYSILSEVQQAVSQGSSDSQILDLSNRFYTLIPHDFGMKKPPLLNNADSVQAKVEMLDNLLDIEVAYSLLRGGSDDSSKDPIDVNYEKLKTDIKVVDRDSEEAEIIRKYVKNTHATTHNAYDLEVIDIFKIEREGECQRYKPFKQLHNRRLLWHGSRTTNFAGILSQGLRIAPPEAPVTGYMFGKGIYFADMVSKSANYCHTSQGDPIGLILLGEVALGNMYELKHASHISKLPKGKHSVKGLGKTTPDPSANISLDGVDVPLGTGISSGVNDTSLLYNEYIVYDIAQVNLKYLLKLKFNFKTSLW
T2 sequence (P11103 2-1013): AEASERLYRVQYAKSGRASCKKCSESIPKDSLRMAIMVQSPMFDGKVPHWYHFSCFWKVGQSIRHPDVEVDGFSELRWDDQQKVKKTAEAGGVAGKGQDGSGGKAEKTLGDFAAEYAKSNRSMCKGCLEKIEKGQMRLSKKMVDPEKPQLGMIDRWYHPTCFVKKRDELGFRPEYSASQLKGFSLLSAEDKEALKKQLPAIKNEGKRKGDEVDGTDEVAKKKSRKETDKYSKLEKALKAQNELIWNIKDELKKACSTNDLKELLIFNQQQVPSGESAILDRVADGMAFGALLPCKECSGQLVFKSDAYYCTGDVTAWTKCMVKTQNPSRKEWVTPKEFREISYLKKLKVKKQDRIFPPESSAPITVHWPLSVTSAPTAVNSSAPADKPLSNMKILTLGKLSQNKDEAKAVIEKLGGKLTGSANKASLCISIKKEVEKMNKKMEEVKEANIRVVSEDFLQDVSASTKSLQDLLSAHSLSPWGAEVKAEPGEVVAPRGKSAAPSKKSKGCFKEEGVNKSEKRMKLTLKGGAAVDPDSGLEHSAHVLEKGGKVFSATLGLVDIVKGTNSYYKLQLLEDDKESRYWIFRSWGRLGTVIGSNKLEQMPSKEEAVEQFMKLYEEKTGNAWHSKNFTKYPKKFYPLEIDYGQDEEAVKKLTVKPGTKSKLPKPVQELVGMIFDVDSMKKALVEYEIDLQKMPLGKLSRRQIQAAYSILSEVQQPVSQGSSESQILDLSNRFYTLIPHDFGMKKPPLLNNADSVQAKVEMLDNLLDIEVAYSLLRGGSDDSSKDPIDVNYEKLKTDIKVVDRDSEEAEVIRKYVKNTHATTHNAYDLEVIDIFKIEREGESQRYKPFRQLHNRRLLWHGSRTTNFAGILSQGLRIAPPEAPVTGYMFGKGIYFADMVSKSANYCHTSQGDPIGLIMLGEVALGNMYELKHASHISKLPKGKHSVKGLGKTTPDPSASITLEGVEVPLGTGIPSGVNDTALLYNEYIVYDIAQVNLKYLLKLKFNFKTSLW
T1 sequence (P09874 whole entry): as the sequence (P09874 whole entry) above

SMILES: Cn1ncnc1[C@H]1c2n[nH]c(=O)c3cc(F)cc(c23)N[C@@H]1c1ccc(F)cc1 [BMN 673]
efficacy against MX-1 xenografts (MX-1 xenografts [1]; once or twice daily administration): regressions of MX-1 xenografts

SMILES: O=C(c1cc(Cc2n[nH]c(=O)c3ccccc23)ccc1F)N1CCN(C(=O)C2CC2)CC1 [olaparib]
efficacy against MX-1 xenografts (MX-1 xenografts [1]; 100 mg kg−1 daily for 28 days): completely ineffective

SMILES: C[C@@H]1O[C@@H](O[C@H]2C[C@@H](O)[C@]3(CO)[C@H]4[C@H](O)C[C@]5(C)[C@@H](C6=CC(=O)OC6)CC[C@]5(O)[C@@H]4CC[C@]3(O)C2)[C@H](O)[C@H](O)[C@H]1O [Ouabain]
effect of transport inhibitor on rucaparib uptake (SW620 cells; [15]): only a very modest effect

SMILES: CN(C)Cc1ccc(-c2nc3cccc4c3n2CCNC4=O)cc1 [AG14361]
tumour distribution and retention [2]: distributed well to the tumour and was retained in the tumour after clearance from the plasma

SMILES: C=C1[C@@H](C)[C@H]2[C@H](Cc3ccccc3)NC(=O)[C@]23OC(=O)/C=C/[C@H](O)CCC[C@@H](C)C/C=C/[C@H]3[C@@H]1O [cytochalasin B]
effect of transport inhibitor on rucaparib uptake (SW620 cells; [15]): no effect on uptake

metabolite concentration relative to parent drug in tumour ([3]; after single dose of rucaparib): lower in the tumour
PARP inhibition after pre-incubation of intact cells (PARP [4]): did not result in PARP inhibition
SMILES: O=C(O)c1ccc(-c2[nH]c3cc(F)cc4c3c2CCNC4=O)cc1 [4-(8-fluoro-6-oxo-3,4,5,6-tetrahydro-1H-azepino[5,4,3-cd]indol-2-yl)benzoic acid]
metabolite concentration relative to parent drug in plasma ([3]; after single dose of rucaparib): higher concentrations than the parent drug in the plasma

SMILES: NC1(C(=O)O)CC2CCC1C2 (stereo not shown) [BCH]
effect of transport inhibitor on rucaparib uptake (SW620 cells; [15]): neither the nucleoside transport inhibitor, dipyridamole, nor the amino-acid transport inhibitor, BCH, inhibited accumulation

rucaparib lost by efflux in the first 5–10 min (SW620 cells; SW620 cells after 30-min pulse with 400 nM): up to 50%
intracellular concentration (SW620 cells; SW620 cells exposed to 400 nM [14C]rucaparib, steady state): > 10 µM
time to steady-state intracellular level (SW620 cells; [15]): ≤ 30 min
uptake with sodium buffer replaced by potassium buffer (SW620 cells; SW620 cells, transport buffer): reduced uptake slightly
uptake with sodium replaced by choline (SW620 cells; SW620 cells, transport buffer): no effect
half-life [7]: 20 min
PARP activity in PBMCs, % of control ([8]; 24 h after single dose 10 mg kg−1 i.p.): > 35%
inhibition at 10 mg/kg ([8]; CAPAN-1, mouse, ip, read-out: initial PARP inhibition in brain): ~50%
reduction in brain PARP activity ([8]; oral dosage, 4 h): > 60%
brain PARP activity after recovery, % of baseline ([8]; oral dosage, after 4 h up to 7 days): 70–80%
PARP activity in PBMCs up to 6 h post-administration ([8]; single dose 10 mg kg−1 i.p.): profound suppression
weight loss at nadir (MX-1 xenografts [11]): ≤ 4%
weight loss (Capan-1 xenografts [12]; Capan-1 tumour-bearing mice, any of the schedules): no significant weight loss
PARP activity 1 week after drug removal [14, 17]: still below baseline
persistence of PARP inhibition after pulse [14, 17]: 72 h
remaining activity at 0.4 µM ([14]; SW-620, read-out: PARP activity, % of control): 35 ± 12%
inhibition at 0.4 µM ([14]; read-out: PARP inhibition, human cancer cell lines (SW620, Capan-1, MX-1), for at least 72 h after 30-min pulse of 400 nM): ≥ 50%
PARP activity below baseline 1 week after initial exposure ([14]; where measured, 30-min pulse): ≥ 30%
dose linearity ([3]; mice): apparent dose linearity
rucaparib in tumour at 3 days ([3]; oral rucaparib): still detectable in most mice
time at which parent drug detectable in plasma ([3]; single dose 10 mg kg−1 i.p., all three mice per group): 30 min
time up to which parent drug detectable in plasma ([3]; single dose 50–150 mg kg−1 p.o., all three mice per group): up to 4 h
SMILES: CNCc1ccc(-c2[nH]c3cc(F)cc4c3c2CCNC4=O)cc1 [rucaparib]
PARP inhibition in livers [5]: not in the livers; also recorded: recovered completely within 24 h
PARP inhibition in MX-1 tumours ([6]; 24 h after single dose 50 mg kg−1 i.p.): > 55%
PARP inhibition in MX-1 tumours ([6]; 24 h after single dose 150 mg kg−1 p.o.): > 80%
PARP inhibition in MX-1 tumours ([6]; 3 days after 150 mg kg−1): 87–92%
PARP inhibition in MX-1 tumours ([6]; 7 days after 150 mg kg−1): 44–74%
Vmax of rucaparib uptake (SW620 cells; SW620 cells, 30 min exposure, mean and s.d. of three independent experiments): 469±22 pmol per 10^6 cells per 10 min
PARP inhibition in Capan-1 tumours ([9]; 7 days following single dose 10 mg kg−1 i.p.): 70%
PARP inhibition in Capan-1 tumours ([9]; 7 days following single dose 150 mg kg−1 p.o.): 90%
PARP activity in tumours, % of control ([9]; single dose 50 mg kg−1 p.o.): ~10%
PARP activity in tumours, % of control ([9]; single dose 150 mg kg−1 p.o.): ~10%
PARP activity in tumours, % of baseline ([9]; after 48 h, 10 mg kg−1 i.p.): ~30%
PARP activity in tumours, % of baseline ([9]; between 30 min and 24 h, all doses and routes (10 mg kg−1 i.p.; 50, 100, 150 mg kg−1 p.o.)): < 20%
efficacy of daily for 5 days every week for 6 weeks vs once a day for 10 days (Capan-1 xenografts [10]): more effective
partial regressions (Capan-1 xenografts [12]; [16]): two persistent partial regressions
time to quadruple in volume (RTV4) (Capan-1 xenografts [12]; [16]): not reached during the 50-day trial
Complete regressions (Capan-1 xenografts [12]; 10 mg kg−1 i.p., d × 5 w × 6): 1/10
Mice remaining at day 40 (Capan-1 xenografts [12]; 10 mg kg−1 i.p., d × 5 w × 6): 6
Complete regressions (Capan-1 xenografts [12]; 10 mg kg−1 i.p., d × 5 w × 6, listed as Rucaparib): one complete tumour regression
Complete regressions (Capan-1 xenografts [12]; 50 mg kg−1 p.o., d × 5 w × 6): 0/10
Mice remaining at day 40 (Capan-1 xenografts [12]; 50 mg kg−1 p.o., d × 5 w × 6): 2
effect on tumour growth (Capan-1 xenografts [12]; 150 mg kg−1 p.o. daily × five weekly × six): equivalent effect on tumour growth to 10 mg kg^−1 i.p.
antitumour effect of once weekly schedule (Capan-1 xenografts [12]; 150 mg kg−1 p.o. once a week for 6 weeks, compared with other schedules): as effective as; also recorded: greatest antitumour effect
Complete regressions (Capan-1 xenografts [12]; 150 mg kg−1 p.o., 1 × w × 6): three complete regressions and 3/10
Mice remaining at day 40 (Capan-1 xenografts [12]; 150 mg kg−1 p.o., 1 × w × 6): 7
Complete regressions (Capan-1 xenografts [12]; 150 mg kg−1 p.o., 3 × w × 6): 1/10
Mice remaining at day 40 (Capan-1 xenografts [12]; 150 mg kg−1 p.o., 3 × w × 6): 5
Complete regressions (Capan-1 xenografts [12]; 150 mg kg−1 p.o., d × 5 w × 6): 1/10
Mice remaining at day 40 (Capan-1 xenografts [12]; 150 mg kg−1 p.o., d × 5 w × 6): 5
Complete regressions (Capan-1 xenografts [12]; 150 mg kg−1 p.o., dx5 every 3w): 1/10
Mice remaining at day 40 (Capan-1 xenografts [12]; 150 mg kg−1 p.o., dx5 every 3w): 5
effect on tumour growth (Capan-1 xenografts [12]; other dosing schedules incl. 150 mg kg−1 p.o. daily for five days every 3 weeks): only marginal effect on tumour growth
PARP activity in peripheral blood mononuclear cells (PARP [13]): still suppressed 3 days after the final of five daily doses

SMILES: OCCN(CCO)c1nc(N2CCCCC2)c2nc(N(CCO)CCO)nc(N3CCCCC3)c2n1 [dipyridamole]
effect of transport inhibitor on rucaparib uptake (SW620 cells; [15]): neither the nucleoside transport inhibitor, dipyridamole, nor the amino-acid transport inhibitor, BCH, inhibited accumulation
